Laboratory results published in PubChem BioAssay (NCI).
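Cells were grown in 96-well plates and exposed to each compound for 48 hours at five concentrations; endpoints were interpolated linearly between bracketing concentrations, or set to the highest concentration if not reached. TGI: concentration producing complete growth inhibition.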

The compounds below were run on SK-MEL-2 melanoma (assay: NCI anticancer screen, dose series, 48 h).

Row | Structure (SMILES) | TGI
1 | O=C(O)[C@@H](NS(=O)(=O)c1ccc(F)cc1)c1ccccc1 | > 100 µM
2 | COc1cccc2c1C(=O)c1c(O)c3c(c(O)c1C2=O)C[C@@](O)(C(=O)CO)C[C@@H]3OC1CC(N(C)C)C(O)C(C)O1 (stereo not given in full) | 0.0885 µM
3 | COC(=O)N/N=C(/CC1(O)C(=O)Nc2ccc([N+](=O)[O-])cc21)c1ccccc1 (stereo not given) | > 72.9 µM

Each compound was assayed on HCT-116 colon (assay: NCI anticancer screen, dose series, 48 h).

Row | Structure (SMILES) | TGI
4 | COC(=O)/C(C#N)=C1\CCC(OC)N1 (stereo not given) | > 100 µM
5 | O=C(O)[C@@H](NS(=O)(=O)c1ccc(F)cc1)c1ccccc1 | > 100 µM
6 | COc1cccc2c1C(=O)c1c(O)c3c(c(O)c1C2=O)C[C@@](O)(C(=O)CO)C[C@@H]3OC1CC(N(C)C)C(O)C(C)O1 (stereo not given in full) | 12.3 µM
7 | COC(=O)N/N=C(/CC1(O)C(=O)Nc2ccc([N+](=O)[O-])cc21)c1ccccc1 (stereo not given) | > 58.6 µM

These compounds were tested on OVCAR-5 ovarian (assay: NCI anticancer screen, dose series, 48 h).

Row | Structure (SMILES) | TGI
8 | COC(=O)/C(C#N)=C1\CCC(OC)N1 (stereo not given) | > 100 µM
9 | O=C(O)[C@@H](NS(=O)(=O)c1ccc(F)cc1)c1ccccc1 | > 100 µM
10 | COc1cccc2c1C(=O)c1c(O)c3c(c(O)c1C2=O)C[C@@](O)(C(=O)CO)C[C@@H]3OC1CC(N(C)C)C(O)C(C)O1 (stereo not given in full) | 0.352 µM
11 | COC(=O)N/N=C(/CC1(O)C(=O)Nc2ccc([N+](=O)[O-])cc21)c1ccccc1 (stereo not given) | > 100 µM

The compounds below were run on T-47D breast (assay: NCI anticancer screen, dose series, 48 h).

Row | Structure (SMILES) | TGI
12 | COc1cccc2c1C(=O)c1c(O)c3c(c(O)c1C2=O)C[C@@](O)(C(=O)CO)C[C@@H]3OC1CC(N(C)C)C(O)C(C)O1 (stereo not given in full) | 0.0969 µM
13 | COC(=O)N/N=C(/CC1(O)C(=O)Nc2ccc([N+](=O)[O-])cc21)c1ccccc1 (stereo not given) | > 100 µM

Each compound was assayed on LXFL 529 NSCLC (assay: NCI anticancer screen, dose series, 48 h).

Row | Structure (SMILES) | TGI
14 | COC(=O)/C(C#N)=C1\CCC(OC)N1 (stereo not given) | > 100 µM
15 | O=C(O)[C@@H](NS(=O)(=O)c1ccc(F)cc1)c1ccccc1 | > 100 µM
16 | COc1cccc2c1C(=O)c1c(O)c3c(c(O)c1C2=O)C[C@@](O)(C(=O)CO)C[C@@H]3OC1CC(N(C)C)C(O)C(C)O1 (stereo not given in full) | 1.6 µM
17 | COC(=O)N/N=C(/CC1(O)C(=O)Nc2ccc([N+](=O)[O-])cc21)c1ccccc1 (stereo not given) | > 100 µM

What follows are compounds tested on A549 NSCLC (assay: NCI anticancer screen, dose series, 48 h).

Row | Structure (SMILES) | TGI
18 | COC(=O)/C(C#N)=C1\CCC(OC)N1 (stereo not given) | > 100 µM
19 | O=C(O)[C@@H](NS(=O)(=O)c1ccc(F)cc1)c1ccccc1 | > 100 µM
20 | COc1cccc2c1C(=O)c1c(O)c3c(c(O)c1C2=O)C[C@@](O)(C(=O)CO)C[C@@H]3OC1CC(N(C)C)C(O)C(C)O1 (stereo not given in full) | 0.785 µM
21 | COC(=O)N/N=C(/CC1(O)C(=O)Nc2ccc([N+](=O)[O-])cc21)c1ccccc1 (stereo not given) | > 100 µM

The compounds below were run on DLD-1 colon (assay: NCI anticancer screen, dose series, 48 h).

Row | Structure (SMILES) | TGI
22 | COC(=O)/C(C#N)=C1\CCC(OC)N1 (stereo not given) | > 100 µM
23 | O=C(O)[C@@H](NS(=O)(=O)c1ccc(F)cc1)c1ccccc1 | > 100 µM
24 | COc1cccc2c1C(=O)c1c(O)c3c(c(O)c1C2=O)C[C@@](O)(C(=O)CO)C[C@@H]3OC1CC(N(C)C)C(O)C(C)O1 (stereo not given in full) | 0.176 µM
25 | COC(=O)N/N=C(/CC1(O)C(=O)Nc2ccc([N+](=O)[O-])cc21)c1ccccc1 (stereo not given) | > 100 µM

What follows are compounds tested on HS 578T breast (assay: NCI anticancer screen, dose series, 48 h).

Row | Structure (SMILES) | TGI
26 | COc1cccc2c1C(=O)c1c(O)c3c(c(O)c1C2=O)C[C@@](O)(C(=O)CO)C[C@@H]3OC1CC(N(C)C)C(O)C(C)O1 (stereo not given in full) | 0.0344 µM
27 | COC(=O)N/N=C(/CC1(O)C(=O)Nc2ccc([N+](=O)[O-])cc21)c1ccccc1 (stereo not given) | 73.3 µM

The compounds below were run on OVCAR-4 ovarian (assay: NCI anticancer screen, dose series, 48 h).

Row | Structure (SMILES) | TGI
28 | COC(=O)/C(C#N)=C1\CCC(OC)N1 (stereo not given) | > 100 µM
29 | O=C(O)[C@@H](NS(=O)(=O)c1ccc(F)cc1)c1ccccc1 | > 100 µM
30 | COc1cccc2c1C(=O)c1c(O)c3c(c(O)c1C2=O)C[C@@](O)(C(=O)CO)C[C@@H]3OC1CC(N(C)C)C(O)C(C)O1 (stereo not given in full) | 0.266 µM
31 | COC(=O)N/N=C(/CC1(O)C(=O)Nc2ccc([N+](=O)[O-])cc21)c1ccccc1 (stereo not given) | > 84.7 µM

What follows are compounds tested on DU-145 prostate (assay: NCI anticancer screen, dose series, 48 h).

Row | Structure (SMILES) | TGI
32 | COc1cccc2c1C(=O)c1c(O)c3c(c(O)c1C2=O)C[C@@](O)(C(=O)CO)C[C@@H]3OC1CC(N(C)C)C(O)C(C)O1 (stereo not given in full) | 0.803 µM
33 | COC(=O)N/N=C(/CC1(O)C(=O)Nc2ccc([N+](=O)[O-])cc21)c1ccccc1 (stereo not given) | > 100 µM

The compounds below were run on BT-549 breast (assay: NCI anticancer screen, dose series, 48 h).

Row | Structure (SMILES) | TGI
34 | COc1cccc2c1C(=O)c1c(O)c3c(c(O)c1C2=O)C[C@@](O)(C(=O)CO)C[C@@H]3OC1CC(N(C)C)C(O)C(C)O1 (stereo not given in full) | 0.556 µM
35 | COC(=O)N/N=C(/CC1(O)C(=O)Nc2ccc([N+](=O)[O-])cc21)c1ccccc1 (stereo not given) | 92.3 µM

What follows are compounds tested on KM12 colon (assay: NCI anticancer screen, dose series, 48 h).

Row | Structure (SMILES) | TGI
36 | COC(=O)/C(C#N)=C1\CCC(OC)N1 (stereo not given) | > 100 µM
37 | COc1cccc2c1C(=O)c1c(O)c3c(c(O)c1C2=O)C[C@@](O)(C(=O)CO)C[C@@H]3OC1CC(N(C)C)C(O)C(C)O1 (stereo not given in full) | 0.338 µM
38 | COC(=O)N/N=C(/CC1(O)C(=O)Nc2ccc([N+](=O)[O-])cc21)c1ccccc1 (stereo not given) | > 63.7 µM

Each compound was assayed on M19-MEL melanoma (assay: NCI anticancer screen, dose series, 48 h).

Row | Structure (SMILES) | TGI
39 | COC(=O)/C(C#N)=C1\CCC(OC)N1 (stereo not given) | > 100 µM
40 | O=C(O)[C@@H](NS(=O)(=O)c1ccc(F)cc1)c1ccccc1 | > 100 µM
41 | COC(=O)N/N=C(/CC1(O)C(=O)Nc2ccc([N+](=O)[O-])cc21)c1ccccc1 (stereo not given) | > 100 µM

The compounds below were run on SNB-75 CNS (assay: NCI anticancer screen, dose series, 48 h).

Row | Structure (SMILES) | TGI
42 | COC(=O)/C(C#N)=C1\CCC(OC)N1 (stereo not given) | > 100 µM
43 | O=C(O)[C@@H](NS(=O)(=O)c1ccc(F)cc1)c1ccccc1 | > 100 µM
44 | COc1cccc2c1C(=O)c1c(O)c3c(c(O)c1C2=O)C[C@@](O)(C(=O)CO)C[C@@H]3OC1CC(N(C)C)C(O)C(C)O1 (stereo not given in full) | 0.138 µM
45 | COC(=O)N/N=C(/CC1(O)C(=O)Nc2ccc([N+](=O)[O-])cc21)c1ccccc1 (stereo not given) | 54.9 µM

These compounds were tested on NCI/ADR-RES ovarian (assay: NCI anticancer screen, dose series, 48 h).

Row | Structure (SMILES) | TGI
46 | COC(=O)N/N=C(/CC1(O)C(=O)Nc2ccc([N+](=O)[O-])cc21)c1ccccc1 (stereo not given) | 55.7 µM

What follows are compounds tested on SN12C renal (assay: NCI anticancer screen, dose series, 48 h).

Row | Structure (SMILES) | TGI
47 | COC(=O)/C(C#N)=C1\CCC(OC)N1 (stereo not given) | > 100 µM
48 | O=C(O)[C@@H](NS(=O)(=O)c1ccc(F)cc1)c1ccccc1 | > 100 µM
49 | COc1cccc2c1C(=O)c1c(O)c3c(c(O)c1C2=O)C[C@@](O)(C(=O)CO)C[C@@H]3OC1CC(N(C)C)C(O)C(C)O1 (stereo not given in full) | 1.14 µM
50 | COC(=O)N/N=C(/CC1(O)C(=O)Nc2ccc([N+](=O)[O-])cc21)c1ccccc1 (stereo not given) | > 100 µM

What follows are compounds tested on MDA-MB-231 breast (assay: NCI anticancer screen, dose series, 48 h).

Row | Structure (SMILES) | TGI
51 | COc1cccc2c1C(=O)c1c(O)c3c(c(O)c1C2=O)C[C@@](O)(C(=O)CO)C[C@@H]3OC1CC(N(C)C)C(O)C(C)O1 (stereo not given in full) | 0.615 µM
52 | COC(=O)N/N=C(/CC1(O)C(=O)Nc2ccc([N+](=O)[O-])cc21)c1ccccc1 (stereo not given) | 44 µM

Each compound was assayed on 786-0 renal (assay: NCI anticancer screen, dose series, 48 h).

Row | Structure (SMILES) | TGI
53 | COC(=O)/C(C#N)=C1\CCC(OC)N1 (stereo not given) | > 100 µM
54 | O=C(O)[C@@H](NS(=O)(=O)c1ccc(F)cc1)c1ccccc1 | > 100 µM
55 | COc1cccc2c1C(=O)c1c(O)c3c(c(O)c1C2=O)C[C@@](O)(C(=O)CO)C[C@@H]3OC1CC(N(C)C)C(O)C(C)O1 (stereo not given in full) | 1.51 µM
56 | COC(=O)N/N=C(/CC1(O)C(=O)Nc2ccc([N+](=O)[O-])cc21)c1ccccc1 (stereo not given) | > 54.4 µM

These compounds were tested on HCT-15 colon (assay: NCI anticancer screen, dose series, 48 h).

Row | Structure (SMILES) | TGI
57 | COC(=O)/C(C#N)=C1\CCC(OC)N1 (stereo not given) | > 100 µM
58 | O=C(O)[C@@H](NS(=O)(=O)c1ccc(F)cc1)c1ccccc1 | > 100 µM
59 | COc1cccc2c1C(=O)c1c(O)c3c(c(O)c1C2=O)C[C@@](O)(C(=O)CO)C[C@@H]3OC1CC(N(C)C)C(O)C(C)O1 (stereo not given in full) | 0.765 µM
60 | COC(=O)N/N=C(/CC1(O)C(=O)Nc2ccc([N+](=O)[O-])cc21)c1ccccc1 (stereo not given) | > 70.6 µM
